Columns and labels:
[1] = Storage stability of limonene in skin lotion, GC/HS; details: for initial GC/HS: skin lotion with 1.0% fragrance (limonene 20%)
Excerpt: (§1) The stability of terpenoid components of typical fragrances was examined in skin care formulations containing 4-substituted resorcinol derivatives to determine the resorcinol's effectiveness toward preventing degradation and loss of terpenoid upon storage. Two terpenoid components, limonene and linalool, were formulated as part of a fragrance in standard skin care lotions containing BHT (a standard antioxidant), unsubstituted resorcinol, 4-ethyl resorcinol and 4-hexyl resorcinol. The stability of these fragrance components was measured using GC/HS analysis to determine the loss of each terpenoid molecule with time as stored under typical consumer product storage conditions storage (5-month storage at 40° C. and in the sun at Room Temperature [RT]). The loss of limonene and linalool in a standard formulation containing no “anti-oxidants” was directly compared to loss of these materials with both BHT, unsubstituted resorcinol and the 4-substituted resorcinol derivatives.
(§2) With reference to the data in the Tables below, GC/HS measurements were taken on an Agilent 6890 GC/5973 MS using a Gerstel MPS2 Headspace Sampler. The samples were incubated at 35° C. for one hour and then 2.50 mL of the headspace above the sample was injected onto a Agilent Technologies number 19091S-433, HP-5MS, 5% Phenyl Methyl Siloxane column which has a 30 m×0.25 mm ID with a 0.25 μm film thickness. The GC data is recorded as peak area count for the two fragrance components.
(§3) The formulations in the Table below were prepared in accordance with the method set forth in Example 1 hereinabove.

[2] = Storage stability of linalool in skin lotion, GC/HS; details: for initial GC/HS: skin lotion with 1.0% fragrance (linalool 20%)
Excerpt: as §1, §2, §3

[3] = Overall stabilization of terpenoid fragrance components in skin lotion; assay type: physicochemical; details: limonene and linalool in skin lotions, 5-month storage (sun RT, 40° C.)
Excerpt: In most cases, the “control” formulation without anti-oxidants or the control with the unsubstituted resorcinol lost twice as much limonene and/or linalool as those formulations containing the 4-substituted resorcinols.

[4] = 5-month storage in the sun at RT

Compound	40° C. 5-months GC/HS ([1]; 5-month storage at 40° C.) [peak area count]	40° C. % Loss ([1]; 5-month storage at 40° C.) [%]	Sun 5-months GC/HS [1, 4] [peak area count]	Sun % Loss [1, 4] [%]	initial GC/HS [1] [peak area count]	40° C. 5-months GC/HS ([2]; 5-month storage at 40° C.) [peak area count]	40° C. % Loss ([2]; 5-month storage at 40° C.) [%]	Sun 5-months GC/HS [2, 4] [peak area count]	Sun % Loss [2, 4] [%]	initial GC/HS [2] [peak area count]	40° C. % Stabilization ([1]; 5-month storage at 40° C.) [%]	Sun % Stabilization [1, 4] [%]	40° C. % Stabilization ([2]; 5-month storage at 40° C.) [%]	Sun % Stabilization [2, 4] [%]	stabilizing terpenoid molecules against degradation [3]
CCc1ccc(O)cc1O [4-EthylResorcinol, 4-ethyl resorcinol]	46790409	12.9	54753996	0	54736538	2292953	30.2	2650924	19.4	3288967					
CCCCCCc1ccc(O)cc1O [4-HexylResorcinol, 4-hexyl resorcinol]	3381932	18.5	34662250	7.7	40778538	1466948	10.2	1666185	7.5	2222930					
Cc1cc(C(C)(C)C)c(O)c(C(C)(C)C)c1 [BHT Sample, BHT]	26286287	31.7	32465677	15.3	38342803	4918953	28.2	4678449	31.4	6853529	35	48	29	16.5	
Oc1cccc(O)c1 [Resorcinol]	19260141	57.6	25743642	43.4	45478209	4286137	29.6	3856563	36.7	6088780					little to no stabilization

From US6858217B2, “Stabilization of terpenoids in cosmetic compositions” (Unilever Home & Personal Care USA division of Conopco, Inc., priority 2002, dated 2005)
